Laboratory results reported in patent US20110178104A1, “Anti-Heparin Compounds” (POLYMEDIX INC., priority 2010, published 2011).

Experiments:
tinzaparin = test: FXa amidolytic assay (Example 10), tinzaparin; conditions: read-out: Tinzap FXa EC50; tinzaparin 0.1 ug/ml; human antithrombin, bovine Factor Xa
enoxaparin = test: FXa amidolytic assay (Example 10), enoxaparin; conditions: read-out: Enox FXa EC50; enoxaparin 0.1 ug/ml; human antithrombin, bovine Factor Xa
fondaparinux = test: FXa amidolytic assay (Example 10), fondaparinux; conditions: read-out: Fondap FXa EC50; fondaparinux 0.02 μg/mL; human antithrombin, bovine Factor Xa
Unfractionated heparin = test: aPTT clotting assay, UFH 0.4 U/mL in plasma (Example 10); assay type: biochemical; conditions: unfractionated heparin 0.4 U/mL in plasma; aPTT clotting
Experimental: aPTT clotting Assay: Unfractionated heparin was mixed with plasma at a final concentration of 0.4 U/mL (or concentration which increases aPTT time to between 120 and 300 seconds). […] The ACL Elite Hemostasis analyzer (Beckman Coulter™) was used to add aPTT reagent (HemosIL SynthASil) to supplemented plasma. Clotting was initiated by addition of CaCl2 and time to clot was recorded.

EC50 (tinzaparin) [nM]	EC50 (enoxaparin) [nM]	EC50 (fondaparinux) [nM]	EC50 (Unfractionated heparin) [nM]	SMILES
> 5000	> 5000	> 10000	> 10000	COc1cc(OC)c(C(=O)NC2CCN(C(=O)c3cc(C(=O)N4CCC(NC(=O)c5cc(C(=O)NCCN)c(OC)cc5OC)CC4)c(OC)cc3OC)CC2)cc1C(=O)NCCN [Compound 393]
296	286	437	15300	COc1ccc(NC(=O)[C@@H](CCCNC(=N)N)NC(=O)c2cc(NC(=O)[C@@H](CCCNC(=N)N)NC(=O)c3cc(NC(=O)[C@@H](CCCNC(=N)N)NC(=O)c4cc(NC(C)=O)ccc4OC)ccc3OC)ccc2OC)cc1C(=O)N[C@@H](Cc1ccc(O)cc1)C(=O)O [Compound 296]
235	272	1900	910	COc1ccc(NC(=O)[C@H](CCCCN)NC(=O)c2cc(NC(=O)[C@H](CCCCN)NC(=O)c3cc(NC(=O)[C@H](CCCCN)NC(=O)c4cc(NC(=O)[C@H](CCCCN)NC(=O)CCC(=O)O)ccc4OC)ccc3OC)ccc2OC)cc1C(N)=O [Compound 339]
299	558	7020	1630	COc1ccc(NC(=O)[C@H](CCCCN)NC(=O)c2cc(NC(=O)[C@H](CCCCN)NC(=O)c3cc(NC(=O)[C@H](CCCCN)NC(=O)c4cc(NC(=O)[C@@H](N)CCCCN)ccc4OC)ccc3OC)ccc2OC)cc1C(=O)NCCCCCC(=O)O [Compound 274]
> 5000	> 5000	> 10000	> 10000	COc1cc(OC)c(C(=O)N[C@H]2CC[C@@H](NC(=O)c3cc(C(=O)N4CCC(N)CC4)c(OC)cc3OC)CC2)cc1C(=O)N[C@H]1CC[C@@H](NC(=O)c2cc(C(=O)N3CCC(N)CC3)c(OC)cc2OC)CC1 [Compound 419]
530	2750	> 10000	11300	COc1cc(OC)c(C(=O)N[C@H]2CC[C@@H](NC(=O)c3cc(C(=O)N4CCC(N)CC4)c(OCCCCCN)cc3OCCCCCN)CC2)cc1C(=O)N[C@H]1CC[C@@H](NC(=O)c2cc(C(=O)N3CCC(N)CC3)c(OCCCCCN)cc2OCCCCCN)CC1 [Compound 426]
165	247	5110	1780	COc1ccc(NC(=O)[C@H](CCCCN)NC(=O)c2cc(NC(=O)[C@H](CCCCN)NC(=O)c3cc(NC(=O)[C@@H](N)CCCCN)ccc3OC)ccc2OC)cc1C(=O)N[C@@H](CCCCN)C(=O)Nc1ccc(OCC(=O)O)c(C(N)=O)c1 [Compound 269]
264	264	244	2740	COc1ccc(NC(=O)[C@@H](CCCNC(=N)N)NC(=O)c2cc(NC(=O)[C@@H](CCCNC(=N)N)NC(=O)c3cc(NC(=O)[C@@H](CCCNC(=N)N)NC(=O)c4cc(NC(C)=O)ccc4OC)ccc3OC)ccc2OC)cc1C(=O)NCC(=O)O [Compound 294]
> 5000	> 5000	> 10000	> 10000	COc1cc(OC)c(C(=O)N[C@H]2CC[C@H](NC(=O)c3cccc(C(=O)O)c3)CC2)cc1C(=O)NCCN [Compound 399]
147	252	4880	2780	[2H]C(C([2H])C([2H])([2H])CN)[C@H](N)C(=O)Nc1ccc(OC)c(C(=O)N[C@@H](CCCCN)C(=O)Nc2ccc(OC)c(C(=O)N[C@@H](CCCCN)C(=O)Nc3ccc(OC)c(C(=O)N[C@@H](CCCCN)C(=O)Nc4ccc(OC)c(C(N)=O)c4)c3)c2)c1 (stereo partly drawn) [Compound 230]
180	267	2880	1570	COc1ccc(NC(=O)[C@H](CCCNC(N)=O)NC(=O)c2cc(NC(=O)[C@H](CCCCN)NC(=O)c3cc(NC(=O)[C@H](CCCCN)NC(=O)c4cc(NC(=O)[C@@H](N)CCCCN)ccc4OC)ccc3OC)ccc2OC)cc1C(N)=O [Compound 259]
446	1010	> 10000	> 10000	COc1ccc(NC(=O)[C@H](CCCNC(=N)N)NC(=O)c2cc(NC(=O)[C@@H](N)CCCNC(=N)N)ccc2OC)cc1C(=O)N[C@@H](CCCNC(=N)N)C(=O)Nc1ccc(OC)c(C(=O)N[C@@H](CCCNC(=N)N)C(=O)Nc2ccc(OC)c(C(=O)N3CCC[C@H]3C(N)=O)c2)c1 [Compound 234]
257	448	2330	1880	COc1ccc(NC(=O)[C@H](CCCCN)NC(=O)c2cc(NC(=O)[C@H](CCCCN)NC(=O)c3cc(NC(=O)[C@H](CCCCN)NC(=O)c4cc(NC(C)=O)ccc4OC)ccc3OC)ccc2OC)cc1C(N)=O [Compound 328]
285	901	4890	2420	COc1ccc(NC(=O)[C@@H](CCCNC(=N)N)NC(=O)c2cc(NC(=O)[C@@H](CCC(=O)O)NC(=O)c3cc(NC(=O)[C@@H](CCCNC(=N)N)NC(=O)c4cc(NC(=O)[C@H](N)CCCNC(=N)N)ccc4OC)ccc3OC)ccc2OC)cc1C(N)=O [Compound 320]
200	495	1110	2220	COc1cc(OC)c(C(=O)N[C@H]2CC[C@@H](NC(=O)c3cc(C(=O)N[C@H]4CC[C@@H](NC(=O)c5cc(C(=O)NC6CCNCC6)c(OC)cc5OC)CC4)c(OC)cc3OC)CC2)cc1C(=O)NC1CCNCC1 [Compound 417]
278	298	491	10600	COc1ccc(NC(C)=O)cc1C(=O)N[C@@H](CCCNC(=N)N)C(=O)Nc1ccc(OC)c(C(=O)N[C@@H](CCCNC(=N)N)C(=O)Nc2ccc(OC)c(C(=O)N[C@@H](CCCNC(=N)N)C(=O)Nc3ccc(OC)c(C(=O)N[C@H](Cc4ccc(O)cc4)C(=O)O)c3)c2)c1 [Compound 302]
> 5000	> 5000	> 10000	> 10000	COc1cc(OC)c(C(=O)N[C@H]2CC[C@@H](NC(=O)c3cc(C(=O)N4CCC(N)CC4)c(OC)cc3OC)CC2)cc1C(=O)N[C@H]1CC[C@@H](N=C(N(C)C)N(C)C)CC1 [Compound 420]
99	192	3560	2310	COc1ccc(NC(=O)[C@H](CCCCN)NC(=O)c2cc(NC(=O)[C@H](CCCCN)NC(=O)c3cc(NC(=O)[C@H](CCCCN)NC(=O)c4cc(NC(=O)[C@H](N)CCCCN)ccc4OC)ccc3OC)ccc2OC)cc1C(N)=O [Compound 231]
536	862	> 10000	3240	COc1ccc(NC(=O)[C@H](C)NC(=O)c2cc(NC(=O)[C@H](CCCCN)NC(=O)c3cc(NC(=O)[C@H](CCCCN)NC(=O)c4cc(NC(=O)[C@@H](N)CCCCN)ccc4OC)ccc3OC)ccc2OC)cc1C(N)=O [Compound 232]
> 5000	> 5000	> 10000	> 10000	COc1ccc(NC(=O)[C@H](CCCCN)NC(=O)c2cc(NC(=O)[C@@H](N)CCCCN)ccc2OC)cc1C(=O)N[C@@H](CCCCN)C(=O)Nc1ccc(SC)c(C(=O)N[C@@H](CCCCN)C(=O)Nc2ccc(SC)c(C(N)=O)c2)c1 [Compound 268]
> 5000	> 5000	> 10000	> 10000	COc1cc(OC)c(C(=O)NCCCNC(=O)c2cc(C(=O)NCCN)c(OC)cc2OC)cc1C(=O)O [Compound 392]
